Measurements: publication PMC7665123, “In Vitro Anti-Inflammatory Activity in Arthritic Synoviocytes of A. brachypoda Root Extracts and Its Unusual Dimeric Flavonoids” (Molecules, 2020)

Columns and labels:
[1] = system: IL-6 release from IL-1β activated HFLS; test: IL-6 release by ELISA in IL-1β activated human fibroblast-like synoviocytes; format: cell-based; conditions: for inhibition at 25 µM: compounds at 25 µM = 13 µg/mL, read-out: Inhibition of IL-6 release at highest non-toxic concentration (%); for IC50: isolated compounds; for Fold higher activity (IC50) compared to compound 1 / DCMAB: IC50 comparison
Experimental: Hip synovial membrane was collected from three male adult patients with clinical osteoarthritis (OA) at the time of hip replacement surgery. […] Once collected, tissue samples were processed, according to previously described protocols. […] After overnight culture, non-adherent cells were removed. At confluence, cells were trypsinized and passaged to 75 cm^2 culture flasks (Corning, NY, USA) in complete medium containing 10% fetal bovine serum. […] All cellular assays were performed from passage 3 to 9. Experiments were conducted twice per donor (n = 6).
All tested compounds were dissolved in a dimethyl sulfoxide (DMSO) stock solution and further diluted in culture medium. Final concentration of DMSO in vehicle of tested concentrations was 0.01%. After 1 h incubation, cells were activated by addition of IL-1β (1 µg/mL) (R&D Systems, Bio-Techne, Abingdon, UK) with subsequent incubation for 23 h. All supernatants were kept at −80 °C, before further testing. Remaining adherent cells were tested for viability using the cell proliferation reagent WST-1 (Roche, Basel, Switzerland), according to the supplier instructions. Pro-inflammatory cytokine IL-6 release in cell supernatant was assessed by ELISA. […] All samples were diluted 90 times. Experiments were conducted twice per donor (n = 6).
In this study, data are presented as mean values ± standard deviation (S.D.). All analyses were performed using GraphPad Prism 8.3 software. IC50 values were determined using a nonlinear fitting of a log (inhibitor concentration) vs response variable slope for each donor’s data set. Consequent values were then averaged. After confirming the data normal distribution and homogeneity of variances (Brown-Forsythe and Welch; Shapiro-Wilk, D’Agostino-Pearson and Anderson-Darling), statistical analysis was performed using a two-way ANOVA with a Bonferroni multiple comparisons test. Significance was determined at alpha level 0.05. Significance values represented are * p < 0.05, ** p < 0.009 and ns for non-significance.

[2] = system: human fibroblast like synoviocytes (HFLS); test: In vitro cytotoxicity (WST-1 cell viability) in HFLS; format: cell-based; conditions: 24 h, tested 3-100 µM
Experimental: Hip synovial membrane was collected from three male adult patients with clinical osteoarthritis (OA) at the time of hip replacement surgery. This protocol was conducted under the approval of the local Ethics Committee (CCER, Geneva, Switzerland) (Authorization #2017-02234) and with informed and consenting patients. Once collected, tissue samples were processed, according to previously described protocols. Briefly, samples were finely minced and digested for 3 h (37 °C, 5% CO2 incubation) in a 3 mg/mL collagenase IX-RPMI 1640 solution. After centrifugation (200× g) and supernatant removal, the resuspended pellet was cultured (37 °C, 5% CO2) in medium containing RPMI 1640, M199 (1:1), 1% penicillin/streptomycin (100 IU/mL:100 µg/mL), 2 mM L-glutamine and 20% fetal bovine serum. After overnight culture, non-adherent cells were removed. At confluence, cells were trypsinized and passaged to 75 cm^2 culture flasks (Corning, NY, USA) in complete medium containing 10% fetal bovine serum. A double control was performed to confirm presence of HFLS after isolation: visual morphology evaluation (Figure S3) and flow cytometry with synoviocyte specific surface markers ([…] and VCAM-1). […] All cellular assays were performed from passage 3 to 9. Experiments were conducted twice per donor (n = 6).
Confluent HFLS cells (25,000 cells/well) were treated in a 96-well plate with compounds 1, 2, and 3 (3 µM, 6 µM, 12 µM, 25 µM, 50 µM, and 100 µM), HEAB and DCMAB (increasing concentrations from 3 to 100 µg/mL), or control vehicle for 1 h. All tested compounds were dissolved in a dimethyl sulfoxide (DMSO) stock solution and further diluted in culture medium. Final concentration of DMSO in vehicle of tested concentrations was 0.01%. After 1 h incubation, cells were activated by addition of IL-1β (1 µg/mL) (R&D Systems, Bio-Techne, Abingdon, UK) with subsequent incubation for 23 h. All supernatants were kept at −80 °C, before further testing. […] Pro-inflammatory cytokine IL-6 release in cell supernatant was assessed by ELISA. […]

[3] = Homo sapiens, IL-1β activated HFLS, 24 h
[4] = Homo sapiens, IL-1β activated HFLS, 24 h, n = 6
[5] = Homo sapiens, µM values transformed into µg/mL

Compound | inhibition at 50 µM ([1]; Homo sapiens, 50 µM, non-significant) [%] | inhibition at 25 µM [1, 3] [%] | IC50 [1, 4] [µM] | IC50 [1, 5] [µg/mL] | Concentration at which cytotoxicity / loss of viability occurs [2] [µM] | Fold higher activity (IC50) compared to compound 1 / DCMAB [1] [fold]
COc1cc(O)cc2c1C(C=Cc1ccc(O)cc1)C1C(c3ccccc3)Oc3cc(O)cc(OC)c3C1O2 (stereo not drawn) [Compound 1, brachydin A] | 24 | 10 ± 11 | 62 ± 2 | 33 ± 2 | 100 | 
COc1ccc(C=CC2c3c(OC)cc(O)cc3OC3c4c(OC)cc(O)cc4OC(c4ccccc4)C23)cc1 (stereo not drawn) [Compound 2, brachydin B] |  | 80 ± 9 | 17 ± 3 | 9 ± 3 | 50 | 3
COc1cc(O)cc2c1C(C=Cc1ccccc1)C1C(c3ccccc3)Oc3cc(O)cc(OC)c3C1O2 (stereo not drawn) [Compound 3, brachydin C] |  | 94 ± 5 | 19 ± 3 | 10 ± 3 | 50 | 3
